According to ChEMBL document CHEMBL3232866, “Design of novel potent antihyperlipidemic agents with antioxidant/anti-inflammatory properties: exploiting phenothiazine's strong antioxidant activity” (J Med Chem, 2014):
The source made the active and inactive calls. No cut-off for these calls is given here.

How the values were obtained:
[1] = system: Rattus norvegicus; experiment: In vivo antidyslipidemic activity against Triton WR 1339-induced hyperlipidemic Wistar rat model assessed as decrease in triglyceride level in plasma at 56 umol/kg, ip administered as single dose 1 hr after Triton WR 1339 challenge measured after 24 hrs; assay type: functional
[2] = system: Rattus norvegicus; experiment: In vivo antidyslipidemic activity against Triton WR 1339-induced hyperlipidemic Wistar rat model assessed as decrease in total cholesterol level in plasma at 56 umol/kg, ip administered as single dose 1 hr after Triton WR 1339 challenge measured after 24 hrs; assay type: functional
[3] = system: Mus musculus; experiment: Antidyslipidemic activity in chronic high-fat diet (2.5 w/w cholesterol, 0.5% w/w cholic acid, 10% w/w peanut oil) fed SKH-2 mouse assessed as decrease in total cholesterol level in plasma at 56 umol/kg, ip bid for 30 days measured on day 30; assay type: functional; details: SKH-2, Plasma, 720 h
[4] = system: Mus musculus; experiment: Effect on food intake in chronic high-fat diet (2.5 w/w cholesterol, 0.5% w/w cholic acid, 10% w/w peanut oil) fed SKH-2 mouse at 56 umol/kg, ip bid for 30 days; assay type: ADME, organism-based; details: in vivo, 720 h
[5] = Antioxidant activity in rat liver microsome membrane assessed as inhibition of lipid peroxidation after 45 mins by TBARS-based spectrophotometric assay; assay type: functional, microsomes
[6] = system: Rattus norvegicus; experiment: In vivo antidyslipidemic activity against Triton WR 1339-induced hyperlipidemic Wistar rat model assessed as decrease in LDL-cholesterol level in plasma at 56 umol/kg, ip administered as single dose 1 hr after Triton WR 1339 challenge measured after 24 hrs; assay type: functional
[7] = system: Mus musculus; experiment: Antidyslipidemic activity in chronic high-fat diet (2.5 w/w cholesterol, 0.5% w/w cholic acid, 10% w/w peanut oil) fed SKH-2 mouse assessed as decrease in LDL level in plasma at 56 umol/kg, ip bid for 30 days measured on day 30; assay type: functional; details: SKH-2, Plasma, 720 h
[8] = system: Glycine max; experiment: Inhibition of soybean lipoxygenase using sodium linoleate as substrate up to 100 uM measured for 6 mins
[9] = system: Mus musculus; experiment: Effect on blood glucose level in chronic high-fat diet (2.5 w/w cholesterol, 0.5% w/w cholic acid, 10% w/w peanut oil) fed SKH-2 mouse at 56 umol/kg, ip bid for 30 days; assay type: ADME, organism-based; details: in vivo, 720 h
[10] = system: Mus musculus; experiment: Antiatherosclerotic activity in apoE-/- transgenic mouse assessed as decrease in primary atherosclerotic lesions administered for 3.5 months; assay type: functional, organism-based
[11] = biological target: T1, Squalene synthase (Rattus norvegicus, UniProt Q02769); experiment: (§1) Inhibition of squalene synthase in rat liver microsomes assessed as decrease in conversion of [3H]FPP to squalene
T1 sequence (Q02769 whole entry): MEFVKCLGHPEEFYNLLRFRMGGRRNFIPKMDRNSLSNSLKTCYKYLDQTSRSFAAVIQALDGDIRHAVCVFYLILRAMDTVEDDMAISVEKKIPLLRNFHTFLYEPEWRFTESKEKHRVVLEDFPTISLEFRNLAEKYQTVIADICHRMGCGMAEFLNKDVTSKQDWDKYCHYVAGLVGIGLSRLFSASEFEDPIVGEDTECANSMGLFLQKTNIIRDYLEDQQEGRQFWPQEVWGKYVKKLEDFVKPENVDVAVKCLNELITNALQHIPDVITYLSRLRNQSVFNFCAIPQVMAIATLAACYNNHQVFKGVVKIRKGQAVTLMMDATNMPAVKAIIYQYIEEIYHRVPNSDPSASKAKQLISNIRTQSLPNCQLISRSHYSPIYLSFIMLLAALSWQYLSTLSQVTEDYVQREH

[12] = biological target: T2, Squalene synthase (Rattus norvegicus) (UniProt Q02769); experiment: as §1
T2 sequence (whole entry): T1 sequence (Q02769 whole entry)

[13] = biological target: T3, Prostaglandin G/H synthase 1 (Bos taurus) (UniProt O62664); experiment: Inhibition of bovine COX-1 assessed as PGF2-alpha formation using arachidonic acid as substrate at 20 uM by enzyme immunoassay
T3 sequence (whole entry): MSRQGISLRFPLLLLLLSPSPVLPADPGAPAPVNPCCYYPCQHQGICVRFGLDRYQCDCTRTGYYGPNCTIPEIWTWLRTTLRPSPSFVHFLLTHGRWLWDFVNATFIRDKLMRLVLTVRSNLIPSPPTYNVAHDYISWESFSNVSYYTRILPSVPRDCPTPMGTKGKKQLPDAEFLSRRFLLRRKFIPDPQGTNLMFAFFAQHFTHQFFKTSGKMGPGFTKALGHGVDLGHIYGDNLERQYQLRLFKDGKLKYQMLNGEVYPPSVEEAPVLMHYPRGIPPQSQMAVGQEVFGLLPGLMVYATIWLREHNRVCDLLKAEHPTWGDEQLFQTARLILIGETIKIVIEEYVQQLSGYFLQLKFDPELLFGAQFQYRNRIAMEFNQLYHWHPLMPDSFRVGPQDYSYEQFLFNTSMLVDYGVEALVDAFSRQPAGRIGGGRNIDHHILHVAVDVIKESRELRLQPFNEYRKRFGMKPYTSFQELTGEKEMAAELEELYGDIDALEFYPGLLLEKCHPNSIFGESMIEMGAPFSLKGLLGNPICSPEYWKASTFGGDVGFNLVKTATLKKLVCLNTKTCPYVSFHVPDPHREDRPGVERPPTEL

[14] = system: Radical scavenging activity; experiment: Antioxidant activity assessed as DPPH radical scavenging activity after 30 mins; assay type: functional
[15] = system: Mus musculus; experiment: Effect on body weight in chronic high-fat diet (2.5 w/w cholesterol, 0.5% w/w cholic acid, 10% w/w peanut oil) fed SKH-2 mouse at 56 umol/kg, ip bid for 30 days; assay type: ADME, organism-based; details: in vivo, 720 h
[16] = system: Mus musculus; experiment: Antidyslipidemic activity in chronic high-fat diet (2.5 w/w cholesterol, 0.5% w/w cholic acid, 10% w/w peanut oil) fed SKH-2 mouse assessed as decrease in LDL level in plasma at 56 umol/kg, ip bid for 21 days; assay type: functional; details: SKH-2, Plasma, 504 h
[17] = system: Mus musculus; experiment: Antidyslipidemic activity in chronic high-fat diet (2.5 w/w cholesterol, 0.5% w/w cholic acid, 10% w/w peanut oil) fed SKH-2 mouse assessed as triglyceride level in plasma at 56 umol/kg, ip bid for 30 days measured on day 30; assay type: functional, organism-based
[18] = system: Radical scavenging activity; experiment: Antioxidant activity assessed as DPPH radical scavenging activity up to 50 uM measured within 15 mins; assay type: functional
[19] = system: Mus musculus; experiment: Hepatotoxicity in apoE-/- transgenic mouse assessed as liver enzymes level administered for 3.5 months; assay type: toxicity, organism-based; details: in vivo
[20] = system: Mus musculus; experiment: Antidyslipidemic activity in chronic high-fat diet (2.5 w/w cholesterol, 0.5% w/w cholic acid, 10% w/w peanut oil) fed SKH-2 mouse assessed as HDL/LDL ratio in plasma at 56 umol/kg, ip bid for 30 days measured on day 30 (reference value: 0.2 no unit); assay type: functional
[21] = system: Mus musculus; experiment: Antidyslipidemic activity in chronic high-fat diet (2.5 w/w cholesterol, 0.5% w/w cholic acid, 10% w/w peanut oil) fed SKH-2 mouse assessed as increase in HDL level in plasma at 56 umol/kg, ip bid for 30 days measured on day 30; assay type: functional
[22] = system: Mus musculus; experiment: Antidyslipidemic activity in chronic high-fat diet (2.5 w/w cholesterol, 0.5% w/w cholic acid, 10% w/w peanut oil) fed SKH-2 mouse assessed as decrease in total cholesterol level in plasma at 56 umol/kg, ip bid for 21 days; assay type: functional; details: SKH-2, Plasma, 504 h
[23] = species: Homo sapiens; experiment: Antioxidant activity against CuSO4-induced human LDL oxidation assessed as inhibition of rate of conjugate diene formation at 1 uM by spectrophotometric analysis; assay type: functional
[24] = system: Mus musculus; experiment: Toxicity in high-fat diet (35.5% w/w fat) fed SKH-2 mouse at 56 umol/kg, ip bid for 28 days by macroscopic analysis; assay type: organism-based; details: in vivo, 672 h
[25] = system: Mus musculus; experiment: Antidyslipidemic activity in high-fat diet (35.5% w/w fat) fed SKH-2 mouse assessed as decrease in LDL level in plasma at 56 umol/kg, ip bid for 28 days measured on day 28; assay type: functional; details: SKH-2, Plasma, 672 h
[26] = species: Homo sapiens; experiment: Antioxidant activity against CuSO4-induced human LDL oxidation assessed as inhibition of rate of conjugate diene formation at 0.50 uM by spectrophotometric analysis; assay type: functional
[27] = species: Homo sapiens; experiment: Antioxidant activity against CuSO4-induced human LDL oxidation assessed as delta-lag time at 0.10 uM by spectrophotometric analysis; assay type: functional
[28] = species: Homo sapiens; experiment: Antioxidant activity against CuSO4-induced human LDL oxidation assessed as increase in lag time at 0.10 uM by spectrophotometric analysis; assay type: functional
[29] = species: Homo sapiens; experiment: Antioxidant activity against CuSO4-induced human LDL oxidation assessed as delta-lag time at 0.50 uM by spectrophotometric analysis; assay type: functional
[30] = system: Mus musculus; experiment: Effect on blood glucose level in high-fat diet (35.5% w/w fat) fed SKH-2 mouse at 56 umol/kg, ip bid for 28 days; assay type: ADME, organism-based; details: in vivo, 672 h
[31] = species: Homo sapiens; experiment: Antioxidant activity against CuSO4-induced human LDL oxidation assessed as inhibition of rate of conjugate diene formation at 0.10 uM by spectrophotometric analysis; assay type: functional
[32] = species: Homo sapiens; experiment: Antioxidant activity against CuSO4-induced human LDL oxidation assessed as prolongation of lag time by spectrophotometric analysis; assay type: functional
[33] = species: Homo sapiens; experiment: Antioxidant activity against CuSO4-induced human LDL oxidation assessed as increase in lag time at 0.50 uM by spectrophotometric analysis; assay type: functional
[34] = system: Mus musculus; experiment: In vivo antioxidant activity in high-fat diet (35.5% w/w fat) fed SKH-2 mouse assessed as reduction in malondialdehyde level in plasma at 56 umol/kg, ip bid for 28 days measured on day 28; assay type: functional; details: SKH-2, Plasma, 672 h
[35] = species: Homo sapiens; experiment: Antioxidant activity against CuSO4-induced human LDL oxidation assessed as lag time at 0.10 uM by spectrophotometric analysis (reference value: 122 mins); assay type: functional
[36] = system: Mus musculus; experiment: Antidyslipidemic activity in high-fat diet (35.5% w/w fat) fed SKH-2 mouse assessed as triglyceride level in plasma at 56 umol/kg, ip bid for 28 days measured on day 28; assay type: functional, organism-based
[37] = system: Mus musculus; experiment: Antidyslipidemic activity in high-fat diet (35.5% w/w fat) fed SKH-2 mouse assessed as HDL level in plasma at 56 umol/kg, ip bid for 28 days measured on day 28; assay type: functional, organism-based
[38] = species: Homo sapiens; experiment: Antioxidant activity against CuSO4-induced human LDL oxidation assessed as increase in lag time at 1 uM by spectrophotometric analysis; assay type: functional
[39] = species: Homo sapiens; experiment: Antioxidant activity against CuSO4-induced human LDL oxidation assessed as lag time at 0.50 uM by spectrophotometric analysis (reference value: 122 mins); assay type: functional
[40] = system: Mus musculus; experiment: In vivo antiinflammatory activity in mouse assessed as decrease in carrageenan-induced paw edema at 0.30 mmol/kg, ip administered immediately after carrageenan injection measured after 3.5 hrs; assay type: functional
[41] = system: Mus musculus; experiment: Antidyslipidemic activity in high-fat diet (35.5% w/w fat) fed SKH-2 mouse assessed as HDL/LDL ratio in plasma at 56 umol/kg, ip bid for 28 days measured on day 28 (reference value: 0.5 no unit); assay type: functional
[42] = system: Mus musculus; experiment: Effect on food intake high-fat diet fed SKH-2 mouse at 56 umol/kg, ip bid for 28 days; assay type: ADME, organism-based; details: in vivo, 672 h
[43] = system: Mus musculus; experiment: Effect on body weight in high-fat diet (35.5% w/w fat) fed SKH-2 mouse at 56 umol/kg, ip bid for 28 days; assay type: ADME, organism-based; details: in vivo, 672 h
[44] = system: Mus musculus; experiment: Antidyslipidemic activity in high-fat diet (35.5% w/w fat) fed SKH-2 mouse assessed as decrease in total cholesterol level in plasma at 56 umol/kg, ip bid for 28 days measured on day 28; assay type: functional; details: SKH-2, Plasma, 672 h

SMILES: CN1CCOC(O)(c2ccc3c(c2)Nc2ccccc2S3)C1 (racemic)
- inhibition in vivo at 56 µmol/kg [1]: 94%
- inhibition in vivo at 56 µmol/kg [2]: 70%
- inhibition in vivo at 56 µmol/kg [3]: 53%
- Activity [4]: Non-toxic
- IC50 [5]: 0.47 µM
- inhibition in vivo at 56 µmol/kg [6]: 80%
- inhibition in vivo at 56 µmol/kg [7]: 76%
- inhibition [8]: inactive
- Activity [9]: Non-toxic
- inhibition [10]: Active
- IC50 [11]: 5 µM
- inhibition [12]: Dose-dependent effect
- inhibition [13]: 92%
- IC50 [14]: 191 µM
- Activity [15]: Non-toxic
- inhibition in vivo at 56 µmol/kg [16]: 58%
- Activity [17]: inactive
- Activity [18]: Active
- Activity [19]: Non-toxic
- Ratio [20]: 1.2
- Activity [21]: 120%
- inhibition in vivo at 56 µmol/kg [22]: 45%

SMILES: CN1CC(O)(c2ccc3c(c2)Nc2ccccc2S3)OC2CCCCC21 (racemic)
- inhibition [23]: 100%
- inhibition in vivo at 56 µmol/kg [1]: 77%
- Activity [24]: Non-toxic
- inhibition in vivo at 56 µmol/kg [2]: 50%
- inhibition in vivo at 56 µmol/kg [25]: 76%
- inhibition [26]: 41%
- TIME [27]: -0.217 h
- IC50 [5]: 0.93 µM
- inhibition in vivo at 56 µmol/kg [6]: 68%
- Activity [28]: 0%
- TIME [29]: 1.3 h
- inhibition [8]: inactive
- Activity [30]: Non-toxic
- inhibition [31]: 0%
- Activity [32]: Dose-dependent effect
- Activity [33]: 64%
- inhibition in vivo at 56 µmol/kg [34]: 38%
- IC50 [11]: 11.9 µM
- inhibition [12]: Dose-dependent effect
- TIME [35]: 1.82 h
- Activity [36]: inactive
- inhibition [13]: 55%
- IC50 [14]: 188 µM
- Activity [37]: inactive
- Activity [18]: Active
- Activity [38]: 100%
- TIME [39]: 3.33 h
- inhibition in vivo at 300 µmol/kg [40]: 41%
- Ratio [41]: 1.7
- Activity [42]: Non-toxic
- Activity [43]: Non-toxic
- inhibition in vivo at 56 µmol/kg [44]: 54%
